Results: US11618747B2, “LXR modulators with bicyclic core moiety” (OrsoBio, Inc., priority 2018, dated 2023)
Where two headings read alike, the source gives them in different places.

Legend:
full length (FL) LXRα = molecular target: T1, full length (FL) LXRα (Homo sapiens, UniProt Q13133); assay: LXR Gal4 reporter transient transfection assay (FL-M2H Gal4α); format: cell-based; conditions: HEK293 cells
T1 construct: the full length (FL) proteins of LXRα (amino acids 1-447); NP005684; expressed in transfected cells; host or cells: HEK293
T1 sequence (Q13133 1-447): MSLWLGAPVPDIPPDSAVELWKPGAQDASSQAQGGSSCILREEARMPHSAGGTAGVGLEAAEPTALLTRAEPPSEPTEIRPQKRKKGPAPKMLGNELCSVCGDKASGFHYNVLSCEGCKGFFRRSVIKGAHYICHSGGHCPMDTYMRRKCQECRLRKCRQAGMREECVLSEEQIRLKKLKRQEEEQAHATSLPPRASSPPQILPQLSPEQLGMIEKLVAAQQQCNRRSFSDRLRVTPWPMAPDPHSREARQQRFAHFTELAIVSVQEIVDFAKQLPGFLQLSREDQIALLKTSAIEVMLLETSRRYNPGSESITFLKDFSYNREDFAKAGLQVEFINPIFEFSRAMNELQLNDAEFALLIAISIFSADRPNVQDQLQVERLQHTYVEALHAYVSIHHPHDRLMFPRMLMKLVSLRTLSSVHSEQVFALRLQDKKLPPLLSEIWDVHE
How it was run: (§1)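 HEK293 cells were transiently co-transfected with NFkB activation-domain fusions of LXR (full length or LBD) and GAL4 DNA-binding-domain fusions of SRC1 (aa 552-887) or NCoR (aa 1906-2312), plus a GAL4-response-element Firefly luciferase reporter and a Renilla control. Compounds were added 4 h post-transfection, cells incubated 16 h, then dual luciferase read.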

[1] = molecular target: T2, LXRβ ligand-binding domain (Homo sapiens, UniProt P55055, DUP175-175); assay: TR-FRETβ activity assay (NCoA3 coactivator peptide recruitment); format: biochemical
T2 construct: amino acids 156-461; NP009052; made in house; host or cells: E. coli
T2 sequence (P55055 with tags, fused parts or gaps DUP175-175 limits assumed): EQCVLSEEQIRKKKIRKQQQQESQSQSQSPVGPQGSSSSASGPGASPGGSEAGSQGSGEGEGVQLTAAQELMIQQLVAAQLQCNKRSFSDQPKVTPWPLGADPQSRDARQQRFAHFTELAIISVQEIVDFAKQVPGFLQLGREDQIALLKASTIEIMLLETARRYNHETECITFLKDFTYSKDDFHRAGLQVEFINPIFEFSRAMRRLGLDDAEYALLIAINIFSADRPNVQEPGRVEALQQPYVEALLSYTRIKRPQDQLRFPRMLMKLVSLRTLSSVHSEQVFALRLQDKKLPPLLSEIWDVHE
How it was run: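 GST-tagged human LXRβ LBD (aa 156-461, E. coli) at 76 nM with 400 nM biotinylated NCoA3 peptide in Tris/HCl pH 6.8, 240 mM KCl, BSA, 0.002% Triton-X-100, plus 1 μM 24(S)-25-epoxycholesterol as prestimulating agonist. Compounds at 50 μM down to 0.002 μM, 1 h at 4 °C. Coactivator recruitment by TR-FRET (Tb cryptate/XL665, 615/665 nm), triplicates.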

full length (FL) LXRβ = molecular target: T3, full length (FL) LXRβ (Homo sapiens, UniProt P55055, DUP175-175); assay: LXR Gal4 reporter transient transfection assay (FL-M2H Gal4β); format: cell-based; conditions: HEK293 cells
T3 construct: the full length (FL) proteins of LXRα (amino acids 1-447); NP005684; NP009052; expressed in transfected cells; host or cells: HEK293
T3 sequence (P55055 with tags, fused parts or gaps DUP175-175): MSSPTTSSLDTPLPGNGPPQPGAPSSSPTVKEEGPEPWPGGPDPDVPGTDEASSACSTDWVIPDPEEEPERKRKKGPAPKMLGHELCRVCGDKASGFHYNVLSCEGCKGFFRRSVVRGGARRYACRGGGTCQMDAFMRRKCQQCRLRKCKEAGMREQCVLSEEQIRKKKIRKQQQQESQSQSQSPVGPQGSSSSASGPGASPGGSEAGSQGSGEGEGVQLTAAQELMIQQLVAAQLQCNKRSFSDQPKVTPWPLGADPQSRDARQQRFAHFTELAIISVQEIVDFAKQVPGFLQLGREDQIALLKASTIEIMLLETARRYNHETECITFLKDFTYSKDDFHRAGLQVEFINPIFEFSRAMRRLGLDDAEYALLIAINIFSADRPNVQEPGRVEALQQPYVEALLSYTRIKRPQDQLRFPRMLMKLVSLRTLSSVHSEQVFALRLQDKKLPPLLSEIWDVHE
How it was run: as §1

[2] = full length LXRα, read-out: FL-M2H Gal4α (EC50 range)
[3] = TR-FRET, 1 μM 24(S)-25-epoxycholesterol prestimulation, read-out: FRETβ (EC50 range)
[4] = full length LXRβ, read-out: FL-M2H Gal4β (EC50 range)

SMILES	EC50 (full length (FL) LXRα; [2]) [nM]	EC50 [1, 3] [nM]	EC50 (full length (FL) LXRβ; [4]) [nM]	FL-M2H Gal4α efficacy (value in brackets) (full length (FL) LXRα) [%]	EC50 (full length (FL) LXRα; read-out: FL-M2H Gal4α potency) [nM]	FRETβ efficacy (value in brackets) ([1]; 1 μM 24(S)-25-epoxycholesterol as prestimulating agonist) [%]	EC50 ([1]; 1 μM 24(S)-25-epoxycholesterol as prestimulating agonist, read-out: FRETβ potency) [nM]	FL-M2H Gal4β efficacy (value in brackets) (full length (FL) LXRβ) [%]	EC50 (full length (FL) LXRβ; read-out: FL-M2H Gal4β potency) [nM]
Cc1ccc(S(=O)(=O)n2c(-c3cccc([C@@H]4C[C@H]4C(=O)O)c3)c(-c3ccsc3C#N)c3ncccc32)cc1 (relative stereo) [Example 4, trans-2-(3-(3-(2-Cyanothioahen-3-yl)-1-tosyl-1H-pyrrolo[3,2-b]pyridin-2-yl)phenyl)cyclopropane-1-carboxylic Acid]	< 100	1000 to 10000	100 to 1000						
N#Cc1cc(C(=O)O)ccc1-c1cccc(-c2c(-c3ccccc3C#N)c3cc(F)ccc3n2S(=O)(=O)c2ccc(C(F)F)cc2)c1 [11/30]	< 100	< 100	< 100						
CC1CCN(S(=O)(=O)n2c(-c3cccc(N4CC(C(=O)O)C4)c3)c(-c3ccsc3C#N)c3cc(F)ccc32)CC1 [3/36]	100 to 1000	1000 to 10000	100 to 1000						
Cc1ccc(S(=O)(=O)n2c(-c3ccnc(-c4ccc(C(=O)O)cc4)c3)c(-c3ccsc3C#N)c3cc(F)ccc32)cc1 [5/6]	< 100	100 to 1000	< 100						
N#Cc1sccc1-c1c(-c2cccc(N3CC(C(=O)O)C3)c2)n(S(=O)(=O)c2ccc(C(F)(F)F)cc2)c2ccc(F)cc12 [3/34]	100 to 1000	100 to 1000	< 100						
N#Cc1ccccc1-c1c(-c2cccc(-c3ccc(C(=O)O)c4c3OCO4)c2)n(S(=O)(=O)c2ccc(C(F)F)cc2)c2ccc(F)cc12 [11/28]	< 100	< 100	< 100						
N#Cc1sccc1-c1c(-c2cccc(-c3ccc(C(=O)NCCS(=O)(=O)O)cc3Cl)c2)n(S(=O)(=O)c2ccc(C(F)F)cc2)c2ccc(F)cc12 [10/3]	< 100	< 100	< 100						
O=C(O)c1ccc(-c2cccc(-c3c(-c4cccc5c4OCO5)c4cc(F)ccc4n3S(=O)(=O)c3ccc(C(F)F)cc3)c2)c(Cl)c1 [11/44]	< 100	< 100	< 100						
Cc1ccc(S(=O)(=O)n2c(-c3cccc(-c4ccc(C(=O)O)c(Cl)c4)c3)c(-c3ccsc3C#N)c3cc(F)ccc32)cc1 [3/49]	< 100	100 to 1000	< 100						
N#Cc1ccccc1-c1c(-c2cccc(-c3ccc(C(=O)O)c(O)c3Cl)c2)n(S(=O)(=O)c2ccc(C(F)F)cc2)c2ccc(F)cc12 [11/32]	< 100	< 100	< 100						
O=C(O)c1ccc(-c2cccc(-c3c(-c4ccccc4)c4cc(F)ccc4n3S(=O)(=O)c3ccc(C(F)F)cc3)c2)c(Cl)c1 [C11/39, reference compound]	< 100	100 to 1000	< 100	117	14	−91	104	140	14
N#Cc1cccc(C#N)c1-c1c(-c2cccc(-c3ccc(S(=O)(=O)O)cc3Cl)c2)n(S(=O)(=O)c2ccc(C(F)F)cc2)c2ccc(F)cc12 [12/10]	< 100	< 100	< 100						
O=C(O)c1ccc(-c2cccc(-c3c(-c4ncccc4OC(F)F)c4cc(F)ccc4n3S(=O)(=O)c3ccc(C(F)F)cc3)c2)c(Cl)c1 [11/41]	< 100	< 100	< 100						
Cc1ccc(S(=O)(=O)n2c(-c3cccc(-c4ccc(CN)cc4Cl)c3)c(-c3ccsc3C#N)c3cc(F)ccc32)cc1 [2/1]	100 to 1000	100 to 1000	100 to 1000						
N#Cc1scnc1-c1c(-c2cccc(-c3cc(F)c(C(=O)O)cc3Cl)c2)n(S(=O)(=O)c2ccc(C(F)F)cc2)c2ccc(F)cc12 [11/9]	< 100	< 100	< 100						
O=C(O)c1ccc(-c2cccc(-c3c(-c4cccc5nonc45)c4cc(F)ccc4n3S(=O)(=O)c3ccc(C(F)F)cc3)c2)c(Cl)c1 [11/45]	< 100	< 100	< 100						
Cc1ccc(S(=O)(=O)n2c(-c3cccc(-c4cc(C(=O)O)n[nH]4)c3)c(-c3ccsc3C#N)c3cc(F)ccc32)cc1 [12/6]	100 to 1000	1000 to 10000	1000 to 10000						
Cc1ccc(S(=O)(=O)n2c(-c3cccc(-c4ccc(C(=O)O)nc4C)c3)c(-c3ccsc3C#N)c3cc(F)ccc32)cc1 [36/1]	< 100	100 to 1000	< 100						
Cc1ccc(S(=O)(=O)n2c(-c3cccc(N4CCC(C(=O)O)CC4)c3)c(-c3ccsc3C#N)c3cc(F)ccc32)cc1 [3/38]	< 100	100 to 1000	< 100						
Cc1ccc(S(=O)(=O)n2c(-c3cccc(-c4ccc(CN(C)C)cc4)c3)c(-c3ccsc3C#N)c3cc(F)ccc32)cc1 [8/1]	< 100	100 to 1000	< 100						
COc1c(C(=O)O)ccc(-c2cccc(-c3c(-c4ccsc4C#N)c4cc(F)ccc4n3S(=O)(=O)c3ccc(C)cc3)c2)c1Cl [12/5]	< 100	< 100	< 100						
COc1cc(-c2cccc(-c3c(-c4ccsc4C#N)c4cc(F)ccc4n3S(=O)(=O)c3ccc(C)cc3)c2)c(Cl)cc1C(=O)O [12/4]	< 100	100 to 1000	< 100						
O=C(O)c1ccc(-c2cccc(-c3c(-c4c(C(F)F)cccc4C(F)F)c4cc(F)ccc4n3S(=O)(=O)c3ccc(C(F)F)cc3)c2)c(Cl)c1 [11/15]	< 100	< 100	< 100						
O=C(O)c1ccc(-c2cccc(-c3c(-c4ccccc4C4COC4)c4cc(F)ccc4n3S(=O)(=O)c3ccc(Cl)cc3)c2)c(Cl)c1 [3/56]	< 100	< 100	< 100						
Cn1ccc(-c2c(-c3cccc(-c4ccc(C(=O)O)cc4Cl)c3)n(S(=O)(=O)c3ccc(C(F)F)cc3)c3ccc(F)cc23)c1C#N [11/68]	< 100	< 100	< 100						
